{"source": "PubChem BioAssay (NCI)", "assay_in_all_cases": "NCI anticancer screen, dose series, 48 h", "key": {"SF-539 CNS": {"tested_on": "SF-539 CNS"}, "DLD-1 colon": {"tested_on": "DLD-1 colon"}, "OVCAR-3 ovarian": {"tested_on": "OVCAR-3 ovarian"}, "KM12 colon": {"tested_on": "KM12 colon"}, "A498 renal": {"tested_on": "A498 renal"}, "MOLT-4 leukemia": {"tested_on": "MOLT-4 leukemia"}, "SF-268 CNS": {"tested_on": "SF-268 CNS"}, "OVCAR-8 ovarian": {"tested_on": "OVCAR-8 ovarian"}, "SNB-19 CNS": {"tested_on": "SNB-19 CNS"}, "SK-MEL-5 melanoma": {"tested_on": "SK-MEL-5 melanoma"}, "NCI-H226 lung": {"tested_on": "NCI-H226 lung"}, "SF-295 CNS": {"tested_on": "SF-295 CNS"}, "OVCAR-4 ovarian": {"tested_on": "OVCAR-4 ovarian"}, "LXFL 529 NSCLC": {"tested_on": "LXFL 529 NSCLC"}, "NCI-H23 lung": {"tested_on": "NCI-H23 lung"}, "M14 melanoma": {"tested_on": "M14 melanoma"}, "SW-620 colon": {"tested_on": "SW-620 colon"}, "HT29 colon": {"tested_on": "HT29 colon"}, "HOP-92 NSCLC": {"tested_on": "HOP-92 NSCLC"}, "TK-10 renal": {"tested_on": "TK-10 renal"}, "HOP-62 NSCLC": {"tested_on": "HOP-62 NSCLC"}, "COLO 205 colon": {"tested_on": "COLO 205 colon"}, "SNB-75 CNS": {"tested_on": "SNB-75 CNS"}, "SK-MEL-2 melanoma": {"tested_on": "SK-MEL-2 melanoma"}, "IGROV1 ovarian": {"tested_on": "IGROV1 ovarian"}, "SK-MEL-28 melanoma": {"tested_on": "SK-MEL-28 melanoma"}, "CCRF-CEM leukemia": {"tested_on": "CCRF-CEM leukemia"}}, "note": "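Dose response: 5 concentrations. Exposure: 48 h. Format: 96-well plates. Endpoint: linear interpolation; highest concentration if not reached. GI50: concentration for 50% inhibition of growth. At the TGI there is no net growth.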"}
{"smiles": "C1COCCN1.C1COCCN1.NC1CCCCC1N.[Cl-].[Pt+2]", "note": "(stereo not drawn)", "values": [{"measurement": "GI50", "setting": "SF-539 CNS", "value": "> 100", "unit": "µM"}, {"measurement": "TGI", "setting": "SF-539 CNS", "value": "> 100", "unit": "µM"}, {"measurement": "GI50", "setting": "DLD-1 colon", "value": "> 100", "unit": "µM"}, {"measurement": "TGI", "setting": "DLD-1 colon", "value": "> 100", "unit": "µM"}, {"measurement": "GI50", "setting": "OVCAR-3 ovarian", "value": "> 100", "unit": "µM"}, {"measurement": "TGI", "setting": "OVCAR-3 ovarian", "value": "> 100", "unit": "µM"}, {"measurement": "GI50", "setting": "KM12 colon", "value": "> 100", "unit": "µM"}, {"measurement": "TGI", "setting": "KM12 colon", "value": "> 100", "unit": "µM"}, {"measurement": "GI50", "setting": "A498 renal", "value": "> 100", "unit": "µM"}, {"measurement": "TGI", "setting": "A498 renal", "value": "> 100", "unit": "µM"}, {"measurement": "GI50", "setting": "MOLT-4 leukemia", "value": "> 100", "unit": "µM"}, {"measurement": "TGI", "setting": "MOLT-4 leukemia", "value": "> 100", "unit": "µM"}, {"measurement": "GI50", "setting": "SF-268 CNS", "value": "> 100", "unit": "µM"}, {"measurement": "TGI", "setting": "SF-268 CNS", "value": "> 100", "unit": "µM"}, {"measurement": "GI50", "setting": "OVCAR-8 ovarian", "value": "> 100", "unit": "µM"}, {"measurement": "TGI", "setting": "OVCAR-8 ovarian", "value": "> 100", "unit": "µM"}, {"measurement": "GI50", "setting": "SNB-19 CNS", "value": "> 100", "unit": "µM"}, {"measurement": "TGI", "setting": "SNB-19 CNS", "value": "> 100", "unit": "µM"}, {"measurement": "GI50", "setting": "SK-MEL-5 melanoma", "value": "> 100", "unit": "µM"}, {"measurement": "TGI", "setting": "SK-MEL-5 melanoma", "value": "> 100", "unit": "µM"}, {"measurement": "GI50", "setting": "NCI-H226 lung", "value": "> 100", "unit": "µM"}, {"measurement": "TGI", "setting": "NCI-H226 lung", "value": "> 100", "unit": "µM"}, {"measurement": "GI50", "setting": "SF-295 CNS", "value": "> 100", "unit": "µM"}, {"measurement": "TGI", "setting": "SF-295 CNS", "value": "> 100", "unit": "µM"}, {"measurement": "GI50", "setting": "OVCAR-4 ovarian", "value": "> 100", "unit": "µM"}, {"measurement": "TGI", "setting": "OVCAR-4 ovarian", "value": "> 100", "unit": "µM"}, {"measurement": "GI50", "setting": "LXFL 529 NSCLC", "value": "> 100", "unit": "µM"}, {"measurement": "TGI", "setting": "LXFL 529 NSCLC", "value": "> 100", "unit": "µM"}, {"measurement": "GI50", "setting": "NCI-H23 lung", "value": "> 100", "unit": "µM"}, {"measurement": "TGI", "setting": "NCI-H23 lung", "value": "> 100", "unit": "µM"}, {"measurement": "GI50", "setting": "M14 melanoma", "value": "> 100", "unit": "µM"}, {"measurement": "TGI", "setting": "M14 melanoma", "value": "> 100", "unit": "µM"}, {"measurement": "GI50", "setting": "SW-620 colon", "value": "> 100", "unit": "µM"}, {"measurement": "TGI", "setting": "SW-620 colon", "value": "> 100", "unit": "µM"}, {"measurement": "GI50", "setting": "HT29 colon", "value": "> 100", "unit": "µM"}, {"measurement": "TGI", "setting": "HT29 colon", "value": "> 100", "unit": "µM"}, {"measurement": "GI50", "setting": "HOP-92 NSCLC", "value": "> 100", "unit": "µM"}, {"measurement": "TGI", "setting": "HOP-92 NSCLC", "value": "> 100", "unit": "µM"}, {"measurement": "GI50", "setting": "TK-10 renal", "value": "> 100", "unit": "µM"}, {"measurement": "TGI", "setting": "TK-10 renal", "value": "> 100", "unit": "µM"}, {"measurement": "GI50", "setting": "HOP-62 NSCLC", "value": "> 100", "unit": "µM"}, {"measurement": "TGI", "setting": "HOP-62 NSCLC", "value": "> 100", "unit": "µM"}, {"measurement": "GI50", "setting": "COLO 205 colon", "value": "> 100", "unit": "µM"}, {"measurement": "TGI", "setting": "COLO 205 colon", "value": "> 100", "unit": "µM"}, {"measurement": "GI50", "setting": "SNB-75 CNS", "value": "> 100", "unit": "µM"}, {"measurement": "TGI", "setting": "SNB-75 CNS", "value": "> 100", "unit": "µM"}, {"measurement": "GI50", "setting": "SK-MEL-2 melanoma", "value": "> 100", "unit": "µM"}, {"measurement": "TGI", "setting": "SK-MEL-2 melanoma", "value": "> 100", "unit": "µM"}, {"measurement": "GI50", "setting": "IGROV1 ovarian", "value": "> 100", "unit": "µM"}, {"measurement": "TGI", "setting": "IGROV1 ovarian", "value": "> 100", "unit": "µM"}, {"measurement": "GI50", "setting": "SK-MEL-28 melanoma", "value": "> 100", "unit": "µM"}, {"measurement": "TGI", "setting": "SK-MEL-28 melanoma", "value": "> 100", "unit": "µM"}, {"measurement": "GI50", "setting": "CCRF-CEM leukemia", "value": "> 100", "unit": "µM"}]}
